Laboratory results from patent US20210147866A1, “PLANTS HAVING INCREASED TOLERANCE TO HERBICIDES” (BASF SE, priority 2017, published 2021).

Experiments:
[1] = test system: Arabidopsis thaliana MC24; assay: Greenhouse dose response, post-emergence spray of untransformed motherline; assay type: in vivo; settings: 9 leaf stage, rates from 0.8 to 100 g/ha, 14 days after treatment (FIG. 2)
[2] = test system: Transgenic MC24 plants expressing the Scenedesmus obliquus HPPD full length coding sequence (SEQ ID NO: 47); assay: Greenhouse post-emergence herbicide tolerance test, transgenic lines expressing full length Scenedesmus obliquus HPPD (F363I); assay type: in vivo, Arabidopsis thaliana
Excerpt: (§1) Additionally, T1 and T2 transgenic Arabidopsis plants can be tested for improved tolerance to HPPD-inhibiting benzamide herbicides in a greenhouse studies. Herbicide injury scoring is done 2-3 weeks after treatment and is rated on a scale of 0 to 100%, 0% being no injury and 100% being complete death.
(§2) The seedlings are then transfered to pots with a diameter of 10 cm and grown in soil to the nine leaf stage.
(§3) Preselected transgenic Arabidopsis plants expressing heterologous Scenedesmus obliquus HPPD mutant enzymes as defined in Seq ID No. 48 and Seq ID No. 50 are tested for tolerance against HPPD-inhibiting 4-bromo-3-(dicyclopropylcarbamoylamino)-6-fluoro-2-methyl-N(1-methyltetrazol-5-yl) benzamide herbicide in greenhouse experiments.
(§4) Transgenic lines are tested expressing heterologous Scenedesmus obliquus HPPD coding sequences under control of the constitutive parsley ubiquitin promoter and the nos terminator. One construct contains the full length Scenedesmus obliquus HPPD enzyme (Seq ID No. 47) while in a second construct the naturally occurring C-terminal insertion of 36 amino acids at position 442-477 is deleted (Seq ID No. 49). Both coding sequences carry the mutation F363I.
(§5) Broadleaf plants are more sensitive to HPPD inhibitors when applied post-emergence as compared to a pre-emergence testing. Therefore, transgenic lines are tested in a post emergence setting at about the nine leaf stage.
(§6) For the herbicide treatment of transgenic lines 4-bromo-3-(dicyclopropylcarbamoylamino)-6-fluoro-2-methyl-N-(1-methyltetrazol-5-yl) benzamide is applied at use rates of 25, 50 and 100 g/ha (see FIG. 3)
(§7) Treated plants are assessed 14 days after treatment (DAT) in the post-emergence setting.

[3] = test system: Transgenic MC24 plants expressing the short Scenedesmus obliquus HPPD (SEQ ID NO:50); assay: Greenhouse post-emergence herbicide tolerance test, transgenic lines expressing short Scenedesmus obliquus HPPD (F363I, amino acids 442-477 deleted); assay type: in vivo, Arabidopsis thaliana
Excerpt: as §1, §2, §3, §4, §5, §6, §7

Cc1c(NC(=O)N(C2CC2)C2CC2)c(Br)cc(F)c1C(=O)Nc1nnnn1C [4-bromo-3-(dicyclopropylcarbamoylamino)-6-fluoro-2-methyl-N-(1-methyltetrazol-5-yl) benzamide]
sensitivity of untransformed MC24 plants towards the herbicide (plant death) [1]: die even at the lowest rate | herbicide tolerance of full length sequence compared to HPPD not containing the C-terminal loop ([2]; 25-100 g/ha, 14 days after treatment): slightly better herbicide tolerance | herbicide tolerance of transgenic lines ([2]; full length S. obliquus HPPD F363I, 25-100 g/ha, post-emergence, 9 leaf stage, 14 DAT (FIG. 4)): show herbicide tolerance | injury of plants with S. obliquus HPPD gene carrying F363I (overall assessment) ([2]; full length construct, shown rates 25, 50 and 100 g/ha, 14 days after treatment): very little to no injury | herbicide tolerance of transgenic lines ([3]; short S. obliquus HPPD F363I, 25 to 100 g/ha, post-emergence, 9 leaf stage, 14 DAT (FIG. 3)): show herbicide tolerance | herbicidal injury of transgenic lines ([3]; short S. obliquus HPPD F363I, 50 to 100 g/ha, post-emergence, 14 DAT (FIG. 3)): Little herbicidal injury | injury of plants with S. obliquus HPPD gene carrying F363I (overall assessment) ([3]; short construct, shown rates 25, 50 and 100 g/ha, 14 days after treatment): very little to no injury
